Results from patent publication US4948782A, “A method of promoting the growth of domestic animals with erythromycin derivative containing composition” (Kitasato Kenkyusho, priority 1987, dated 1990).

Experiments:
Assay type in all cases: cell-based
[1] = tested on: Klebsiella pneumoniae ATCC 10031; assay: MIC, Klebsiella pneumoniae ATCC 10031 (KP); details: ATCC10031; Klebsiella pneumoniae ATCC 10031; read-out: MIC KP
Escherichia coli NIHJ = assay: MIC, Escherichia coli NIHJ (EC)
[2] = tested on: Staphylococcus aureus ATCC 6538P; assay: MIC, Staphylococcus aureus ATCC 6538P (SA(1)); details: Staphylococcus aureus, ATCC6538P, Staphylococcus aureus ATCC 6538P; read-out: MIC SA (1)
Source text: (§1) The minimum inhibitory concentrations (MIC: mcg/ml) of the erythromycin derivatives of the present invention and the control erythromycin derivative (*) as the known growth promoting agent on typical test bacteria are shown in the following Tables 1 to 5.
SA(1): Staphylococcus aureus ATCC 6538P

[3] = tested on: Staphylococcus aureus FDA 209P; assay: MIC, Staphylococcus aureus FDA 209P (SA(2)); details: Staphylococcus aureus, FDA209P, Staphylococcus aureus FDA 209P; read-out: MIC SA (2)
Source text: as §1
SA(2): Staphylococcus aureus FDA 209P

Bacillus subtilis = assay: MIC, Bacillus subtilis (BS); details: read-out: MIC BS
Bacillus cereus IFO 3001 = assay: MIC, Bacillus cereus IFO 3001 (BC); details: Bacillus cereus, IFO3001, Bacillus cereus IFO 3001; read-out: MIC BC

Measured: MIC

CC[C@H]1OC(=O)[C@H](C)[C@@H](O[C@H]2C[C@@](C)(OC)[C@@H](O)[C@H](C)O2)[C@H](C)[C@@H](O[C@@H]2O[C@H](C)C[C@H]([N+](C)(C)CC)[C@H]2O)[C@@]2(C)CC(C)C(O2)[C@H](C)[C@@H](O)[C@]1(C)O (stereo partly drawn) [Compound 63]
> 100 µg/mL: all assays above

CCC[N+](C)(C)[C@H]1C[C@@H](C)O[C@@H](O[C@@H]2[C@@H](C)[C@H](O[C@H]3C[C@@](C)(OC)[C@@H](O)[C@H](C)O3)[C@@H](C)C(=O)O[C@H](CC)[C@@](C)(O)[C@H](O)[C@@H](C)C3O[C@]2(C)CC3C)[C@@H]1O (stereo partly drawn) [Compound 64]
> 100 µg/mL: all assays above

CCCC[N+](C)(C)[C@H]1C[C@@H](C)O[C@@H](O[C@@H]2[C@@H](C)[C@H](O[C@H]3C[C@@](C)(OC)[C@@H](O)[C@H](C)O3)[C@@H](C)C(=O)O[C@H](CC)[C@@](C)(O)[C@H](O)[C@@H](C)C3O[C@]2(C)CC3C)[C@@H]1O (stereo partly drawn) [Compound 65]
> 100 µg/mL: [1] | Escherichia coli NIHJ
50 µg/mL: Bacillus subtilis
100 µg/mL: all other assays above

C=CC[N+](C)(C)[C@H]1C[C@@H](C)O[C@@H](O[C@@H]2[C@@H](C)[C@H](O[C@H]3C[C@@](C)(OC)[C@@H](O)[C@H](C)O3)[C@@H](C)C(=O)O[C@H](CC)[C@@](C)(O)[C@H](O)[C@@H](C)C3O[C@]2(C)CC3C)[C@@H]1O (stereo partly drawn) [Compound 66]
> 100 µg/mL: [1] | Escherichia coli NIHJ
100 µg/mL: all other assays above

C#CC[N+](C)(C)[C@H]1C[C@@H](C)O[C@@H](O[C@@H]2[C@@H](C)[C@H](O[C@H]3C[C@@](C)(OC)[C@@H](O)[C@H](C)O3)[C@@H](C)C(=O)O[C@H](CC)[C@@](C)(O)[C@H](O)[C@@H](C)C3O[C@]2(C)CC3C)[C@@H]1O (stereo partly drawn) [Compound 67]
> 100 µg/mL: all assays above

C#CC[N+](C)(C)[C@H]1C[C@@H](C)O[C@@H](O[C@@H]2[C@@H](C)[C@H](O[C@H]3C[C@@](C)(OC)[C@@H](O)[C@H](C)O3)[C@@H](C)C(=O)O[C@H](CC)[C@@](C)(O)[C@H](O)[C@@H](C)C3O[C@]2(C)CC3C)[C@@H]1OC(C)=O (stereo partly drawn) [Compound 68]
> 100 µg/mL: all assays above

CC[C@H]1OC(=O)[C@H](C)[C@@H](O[C@H]2C[C@@](C)(OC)[C@@H](O)[C@H](C)O2)[C@H](C)[C@@H](O[C@@H]2O[C@H](C)C[C@H](N(C)CC)[C@H]2O)[C@@]2(C)CC(C)C(O2)[C@H](C)[C@@H](O)[C@]1(C)O (stereo partly drawn) [Compound 69]
> 100 µg/mL: all assays above

CC[C@H]1OC(=O)[C@H](C)[C@@H](O[C@H]2C[C@@](C)(OC)[C@@H](O)[C@H](C)O2)[C@H](C)[C@@H](O[C@@H]2O[C@H](C)C[C@H]([N+](C)(C)C)[C@H]2O)[C@@]2(C)CC(C)C3(O[C@@]1(C)[C@H](O)[C@H]3C)O2 (stereo partly drawn) [Compound 70]
> 100 µg/mL: all assays above

CC[C@H]1OC(=O)[C@H](C)[C@@H](O[C@H]2C[C@@](C)(OC)[C@@H](O)[C@H](C)O2)[C@H](C)[C@@H](O[C@@H]2O[C@H](C)C[C@H]([N+](C)(C)CC)[C@H]2O)[C@@]2(C)CC(C)C3(O[C@@]1(C)[C@H](O)[C@H]3C)O2 (stereo partly drawn) [Compound 71]
100 µg/mL: Bacillus subtilis | Bacillus cereus IFO 3001
> 100 µg/mL: all other assays above

CCC[N+](C)(C)[C@H]1C[C@@H](C)O[C@@H](O[C@@H]2[C@@H](C)[C@H](O[C@H]3C[C@@](C)(OC)[C@@H](O)[C@H](C)O3)[C@@H](C)C(=O)O[C@H](CC)[C@@]3(C)OC4(O[C@]2(C)CC4C)[C@H](C)[C@H]3O)[C@@H]1O (stereo partly drawn) [Compound 72]
> 100 µg/mL: all assays above

CC[C@H]1OC(=O)[C@H](C)[C@@H](O[C@H]2C[C@@](C)(OC)[C@@H](O)[C@H](C)O2)[C@H](C)[C@@H](O[C@@H]2O[C@H](C)C[C@H]([N+](C)(C)Cc3ccccc3)[C@H]2O)[C@@]2(C)CC(C)C3(O[C@@]1(C)[C@H](O)[C@H]3C)O2 (stereo partly drawn) [Compound 73]
> 100 µg/mL: all assays above

CC[C@H]1OC(=O)[C@H](C)[C@@H](O[C@H]2C[C@@](C)(OC)[C@@H](O)[C@H](C)O2)[C@H](C)[C@@H](O[C@@H]2O[C@H](C)C[C@H]([N+](C)(C)CC)[C@H]2O)[C@@]2(C)CC(C)=C(O2)[C@H](C)[C@@H](O)C1C (stereo partly drawn) [Compound 74]
100 µg/mL: [2] | [3] | Bacillus cereus IFO 3001
> 100 µg/mL: all other assays above

C#CC[N+](C)(C)[C@H]1C[C@@H](C)O[C@@H](O[C@@H]2[C@@H](C)[C@H](O[C@H]3C[C@@](C)(OC)[C@@H](O)[C@H](C)O3)[C@@H](C)C(=O)O[C@H](CC)C(C)[C@H](O)[C@@H](C)C3=C(C)C[C@@]2(C)O3)[C@@H]1O (stereo partly drawn) [Compound 75]
> 100 µg/mL: [1] | Escherichia coli NIHJ
100 µg/mL: all other assays above

CC[C@H]1OC(=O)[C@H](C)[C@@H](O[C@H]2C[C@@](C)(OC)[C@@H](O)[C@H](C)O2)[C@H](C)[C@@H](O[C@@H]2O[C@H](C)C[C@H]([N+](C)(C)CC)[C@H]2O)[C@](C)(O)C[C@@H](C)C(=O)[C@H](C)[C@@H](O)[C@]1(C)O [Compound 76]
< 3.12 µg/mL: Bacillus subtilis
12.5 µg/mL: [3]
> 100 µg/mL: [1] | Escherichia coli NIHJ
6.25 µg/mL: [2] | Bacillus cereus IFO 3001

C=CC[N+](C)(C)[C@H]1C[C@@H](C)O[C@@H](O[C@@H]2[C@@H](C)[C@H](O[C@H]3C[C@@](C)(OC)[C@@H](O)[C@H](C)O3)[C@@H](C)C(=O)O[C@H](CC)[C@@](C)(O)[C@H](O)[C@@H](C)C(=O)[C@H](C)C[C@@]2(C)O)[C@@H]1O [Compound 77]
> 100 µg/mL: [1] | Escherichia coli NIHJ
12.5 µg/mL: Bacillus subtilis | Bacillus cereus IFO 3001
50 µg/mL: [3]
25 µg/mL: [2]

C#CC[N+](C)(C)[C@H]1C[C@@H](C)O[C@@H](O[C@@H]2[C@@H](C)[C@H](O[C@H]3C[C@@](C)(OC)[C@@H](O)[C@H](C)O3)[C@@H](C)C(=O)O[C@H](CC)[C@@](C)(O)[C@H](O)[C@@H](C)C(=O)[C@H](C)C[C@@]2(C)O)[C@@H]1O [Compound 78]
25 µg/mL: [3]
6.25 µg/mL: Bacillus subtilis | Bacillus cereus IFO 3001
> 100 µg/mL: [1] | Escherichia coli NIHJ
12.5 µg/mL: [2]
